pIC50: −log10 of the molar value. Values joined by “and” are separate entries in the source; they are usually repeats but may differ in a detail not shown here. Equal entries are not always repeated. Structures can show the parent of a compound that is named as a salt. Where two headings read alike, the source gives them in different places.

The source of these data is patent US20110028552A1, “MEXILETINE AMINO ACID AND PEPTIDE PRODRUGS AND USES THEREOF” (priority 2009, published 2011).

For data set [1] the following is noted: mexiletine from prodrug vs parent. As to the method: Blood samples were taken at various times after administration and submitted to analysis for the prodrug and parent drug using a validated LC-MS-MS assay. Pharmacokinetic parameters derived from the plasma analytical were determined using Win Nonlin.
Data set [2] in a line: Systemic availability of mexiletine in the dog after oral prodrug dosing. The data set is classed as in vivo, Dog (Beagle). Conditions: 1 mg/kg mexiletine free base. As to the method: Test substances (i.e., mexiletine, and various mexiletine amino acid prodrugs) were administered by oral gavage to groups of five dogs. The characteristics of the test animals are set out in Table 6.
Blood samples were taken at various times after administration and submitted to analysis for parent drug using a validated LC-MS-MS assay. Pharmacokinetic parameters derived from the plasma analytical were determined using Win Nonlin.

Data set [3] deals with rabbit stomach smooth muscle. The data set is described as follows: EFS-stimulated contractions of isolated rabbit stomach smooth muscle. To be noted: rabbit stomach antrum strips; EFS 14 Hz.
The nature of data set [4]: Systemic availability of mexiletine in the cynomolgus monkey after oral prodrug dosing. The data set is classed as in vivo. To be noted: 1 mg/kg mexiletine free base.
The target in another data set is T1, hNav 1.1 channel (Homo sapiens, UniProt P35498).
T1 construct: expressed in transfected cells
Description: Block of cloned hNav1.1 channel in CHO cells (IonWorks Quattro). Conditions: for IC50 fold above the parent: relative to mexiletine. The data set is classed as cell-based. As to the method: Data was corrected for leak current.
The tonic block was calculated as:
% Block (Tonic)=(1−ITP1,TA/ITP1,Control)×100%,
where ITP1, Control and ITP1, TA are the inward peak Na^+ currents elicited by the TP1 in control and in the presence of a test article, respectively. 10 Hz Block—the frequency-dependent block at stimulation frequency 10 Hz was calculated as: […]
where ITP11, Control and ITP11, TA are the inward peak Na^+ currents elicited by the TP11 in control and in the presence of a test article, respectively. The inactivation state block is defined as the decrease in test pulse (TP12) current amplitude due to the conditioning depolarizing pulse (TP11). The inactivation state block was calculated as:
% Block (inactivation state)=(1−(ITP12,TA/ITP12,TA)×100%,
where ITP12, Control and ITP12, TA are the inward peak Na^+ currents elicited by the TP12 in control and in the presence of a test article, respectively. Concentration-response data for the blocks were fit to an equation of the following form: […]
(In patch-clamp work, channel activity is measured electrically.)

For data set [5] the following is noted: cited from earlier work.
The conditions of data set [6]: cited from earlier work. This is another data set of the same source.
The test system of the next data set is sodium channel. To be noted: De Bellis et al. (2006); cited from earlier work.
Setting [7] is: hNav1.1 in CHO cells, frequency-dependent block at 10 Hz (TP11), read-out: IC50 10 Hz block.
Setting [8] is: hNav1.1 in CHO cells, inactivation state block (TP12), read-out: IC50 Inactivated state.
Where [9] appears, read: hNav1.1 in CHO cells, tonic block (TP1), read-out: IC50 Tonic block.
Setting [10] is: hNav1.1, 10 Hz block, rounded values, read-out: IC50 values (with the 10 Hz block).

Take `Cc1cccc(C)c1OCC(C)NC(=O)CN.O=C(O)C(F)(F)F` (racemic) [(rac)-mexiletine-glycine trifluoroacetate]: in [1] (individual ferrets, oral 10 mg free base equivalents/kg), the Frel was 67% and 107% and 103% and 77% and 108% and 101%. For the same compound, the “Frel, Mean” value in [1] (mean of six ferrets) is recorded as 94%. For the same compound, the “F (abs)” value in data set [2] stood at 57 ± 6%; in data set [4], 41.5 ± 4.11%. The “calculated ED50, attenuation of EFS induced contractions” value (from here on “calculated ED50, attenuation”) in data set [3] is 9.16 µM. Further, the “duration of vomiting relative to mexiletine” value in the data set on ferret (% of that seen after mexiletine itself) is given as “less than 30%”. Moreover, in the data set with ferret (% of those observed after dosing the parent drug), the “average number of vomits relative to parent drug” value was “less than 30%”. Besides, the pIC50 at hNav 1.1 channel (setting [7]) was 3.97; on hNav 1.1 channel (setting [8]) it was 4.67; at hNav 1.1 channel (setting [9]), 3.40.

Regarding `Cc1cccc(C)c1OCC(C)N.Cl` (racemic) [Mexiletine hydrochloride, (rac)-1-(2,6-dimethylphenoxy)-2-propanamine hydrochloride, reference compound], in data set [3], the “calculated ED50, attenuation” value was 2.17 µM. The pIC50 on hNav 1.1 channel (setting [10]) was 4.42; at hNav 1.1 channel (setting [7]), 4.42; on hNav 1.1 channel (setting [8]), 5.04; on hNav 1.1 channel (setting [9]), 3.94.

Regarding `Cc1cccc(C)c1OCC(C)NC(=O)[C@@H](N)CCCCN` (mixture of isomers) [Mexiletine lysine amide, 2,6-diamino-hexanoic acid [2-(2,6-dimethylphenoxy)-1-methylethyl]-amide ditrifluoroacetate], the “calculated ED50, attenuation” value in data set [3] is 21.83 µM.

With `Cc1cccc(C)c1OCC(C)NC(=O)[C@@H](N)CC[S+](C)C.Cl.[Cl-]` (stereo partly drawn) [(S)-2-Amino-N-[2-(2,6-dimethyl-phenoxy)-1-methyl-ethyl]-4-(dimethyl-λ^4-sulfanyl chloride)-butyramide hydrochloride], on hNav 1.1 channel (hNav1.1), the “IC50 fold above the parent” value is given as about 20 fold. Moreover, the pIC50 at hNav 1.1 channel (setting [7]), on hNav 1.1 channel (setting [8]) and at hNav 1.1 channel (setting [9]) was under 3.00 each time.

As to `CNCC[C@H](Oc1cccc2ccccc12)c1cccs1` [Duloxetine], the “treated patients with nausea” value in data set [5] (FDA labeling) was 20-40%.

`Cc1cccc(C)c1OCC(C)NC(=O)C(C)CN` (stereo not drawn) [Mexiletine 2-methyl β alanine amide]: the pIC50 on hNav 1.1 channel (setting [7]) is 4.29; on hNav 1.1 channel (setting [8]), 4.79; at hNav 1.1 channel (setting [9]), 3.86.

Turning to `Cc1cccc(C)c1OCC(C)NC(=O)C1CC(O)CN1` (centres unmarked) [Mexiletine 4-hydroxyproline amide], the pIC50 on hNav 1.1 channel (setting [7]) is 4.43; on hNav 1.1 channel (setting [8]), 4.81; on hNav 1.1 channel (setting [9]), 3.83.

For `Cc1cccc(C)c1OCC(C)NC(=O)C(N)CCCNC(N)=O` (centres unmarked) [Mexiletine citrulline amide], the figures for the pIC50 at hNav 1.1 channel (setting [7]), on hNav 1.1 channel (setting [8]) and at hNav 1.1 channel (setting [9]) were 3.45, 3.74 and 3.31, respectively.

`Cc1cccc(C)c1OCC(C)NC(=O)C(N)C1CC1` (centres unmarked) [Mexiletine cyclopropyl glycine amide]: the results for the pIC50 on hNav 1.1 channel (setting [7]), on hNav 1.1 channel (setting [8]) and at hNav 1.1 channel (setting [9]) were 3.77, 4.37 and 3.32, respectively.

On to `Cc1cccc(C)c1OCC(C)NC(=O)CN(C)C` (centres unmarked) [Mexiletine dimethylglycine amide], for which the results for the negative-log IC50 (pIC50) on hNav 1.1 channel (setting [7]), at hNav 1.1 channel (setting [8]) and on hNav 1.1 channel (setting [9]) were 4.99, 5.49 and 4.52, respectively.

Regarding `Cc1cccc(C)c1OCC(C)NC(=O)[C@@H](N)CCC(=O)O.Cl` (stereo partly drawn) [Mexiletine glutamic acid amide, (S)-4-Amino-4-[2-(2,6-dimethyl-phenoxy)-1-methyl-ethylcarbamoyl]-butyric acid hydrochloride], the pIC50 on hNav 1.1 channel (setting [10]), on hNav 1.1 channel (setting [7]), at hNav 1.1 channel (setting [8]) and on hNav 1.1 channel (setting [9]) was under 3.00 each time. The “IC50 fold above the parent” value on hNav 1.1 channel (hNav1.1) is about 20 fold.

As for `Cc1cccc(C)c1OCC(C)NC(=O)[C@@H](N)CCC(N)=O` (stereo partly drawn) [Mexiletine glutamine amide, (S)-2-Amino-pentanedioic acid 5-amide 1-{[2-(2,6-dimethyl-phenoxy)-1-methyl-ethyl]-amide}hydrochloride], the pIC50 on hNav 1.1 channel (setting [7]) is 3.86; at hNav 1.1 channel (setting [8]) it was 4.17; at hNav 1.1 channel (setting [9]), 3.12.

Turning to `Cc1cccc(C)c1OCC(C)NC(=O)C(N)Cc1c[nH]cn1` (centres unmarked) [Mexiletine histidine amide], the values for the pIC50 on hNav 1.1 channel (setting [7]), on hNav 1.1 channel (setting [8]) and at hNav 1.1 channel (setting [9]) were 4.38, 4.67 and 4.10, respectively.

For the compound `Cc1cccc(C)c1OCC(C)NC(=O)[C@@H](N)CCCCNC(=N)N` (stereo partly drawn) [Mexiletine homoarginine amide, (S)-2-Amino-6-guanidino-hexanoic acid [2-(2,6-dimethyl-phenoxy)-1-methyl-ethyl]-amide dihydrochloride], the pIC50 at hNav 1.1 channel (setting [10]) is 3.20; on hNav 1.1 channel (setting [7]), 3.21; at hNav 1.1 channel (setting [8]) it was 3.59; on hNav 1.1 channel (setting [9]), 3.13. The “IC50 fold above the parent” value at hNav 1.1 channel (hNav1.1) is reported as about 20 fold.

As to `Cc1cccc(C)c1OCC(C)NC(=O)c1ccncc1` (centres unmarked) [Mexiletine isonicotinic acid amide], the pIC50 at hNav 1.1 channel (setting [7]) is 3.36; on hNav 1.1 channel (setting [8]), 3.89; on hNav 1.1 channel (setting [9]), 3.09.

With `Cc1cccc(C)c1OCC(C)NC(=O)c1cccnc1` (centres unmarked) [Mexiletine nicotinic acid amide], the pIC50 was 3.46 on hNav 1.1 channel (setting [7]), 4.21 at hNav 1.1 channel (setting [8]) and 3.31 on hNav 1.1 channel (setting [9]).

`Cc1cccc(C)c1OCC(C)NC(=O)[C@@H](N)Cc1ccccc1.Cl` (some centres unmarked) [Mexiletine phenylalanine amide]: the “F (abs)” value in data set [2] is listed as 38 ± 6%.

As to `Cc1cccc(C)c1OCC(C)NC(=O)C1CCCCN1` (centres unmarked) [Mexiletine pipecolic acid amide], the pIC50 at hNav 1.1 channel (setting [7]) was 5.22; on hNav 1.1 channel (setting [8]), 5.57; on hNav 1.1 channel (setting [9]), 4.59.

Turning to `CNCC(=O)NC(C)COc1c(C)cccc1C` (centres unmarked) [Mexiletine sarcosine amide], the pIC50 at hNav 1.1 channel (setting [7]) was 4.41; on hNav 1.1 channel (setting [8]) it was 5.20; at hNav 1.1 channel (setting [9]) it was 3.73.

For the compound `Cc1cccc(C)c1OCC(C)NC(=O)C(N)CO` (centres unmarked) [Mexiletine serine amide], the pIC50 is 4.30 at hNav 1.1 channel (setting [7]), 4.85 on hNav 1.1 channel (setting [8]) and 3.62 at hNav 1.1 channel (setting [9]).

In the case of `Cc1cccc(C)c1OCC(C)NC(=O)C(N)C(C)O` (centres unmarked) [Mexiletine threonine amide], the pIC50 on hNav 1.1 channel (setting [7]) is 4.38; at hNav 1.1 channel (setting [8]), 4.94; at hNav 1.1 channel (setting [9]) it was 3.63.

Consider `Cc1cccc(C)c1OCC(C)NC(=O)[C@@H](N)C(C)C.Cl` (some centres unmarked) [Mexiletine valine amide], for which the “F (abs)” value in data set [2] came out at 35 ± 6%.

Consider `Cc1cccc(C)c1OCC(C)NC(=O)[C@@H](NC(=O)[C@@H](N)C(C)C)C(C)C.Cl` (some centres unmarked) [Mexiletine valine-valine amide], for which the “F (abs)” value in data set [2] is 50 ± 9%.

As for `Cc1cccc(C)c1OCC(C)NC(=O)CCN` (stereo not drawn) [Mexiletine β alanine amide], the pIC50 is 4.23 on hNav 1.1 channel (setting [7]), 4.63 at hNav 1.1 channel (setting [8]) and 3.61 at hNav 1.1 channel (setting [9]).

With `Cc1cccc(C)c1OCC(C)NC(=O)C(N)CN` (stereo not drawn) [Mexiletine β amino alanine amide], the results for the pIC50 on hNav 1.1 channel (setting [7]), at hNav 1.1 channel (setting [8]) and at hNav 1.1 channel (setting [9]) were 3.75, 4.21 and 3.32, respectively.

Take `NCC1(CC(=O)O)CCCCC1` [gabapentin]: the Bioavailability result in [6] (900 mg/day gabapentin) is listed as “approximately 60%”; in data set [6] (1200 mg/day gabapentin) it was about 47%; in data set [6] (2400 mg/day gabapentin), about 34%; in data set [6] (3600 mg/day gabapentin), about 33%; in [6] (4800 mg/day gabapentin), about 27%.

For the compound `CC(C)C[C@H](CN)CC(=O)O` [pregabalin], the “patients with dizziness and somnolence” value in data set [5] (patients treated at the higher doses (FDA labeling)) is “up to 30%”.

With Para-hydroxymexiletine, the “sodium channel inhibitory activity retained vs parent molecule” value in the data set on sodium channel is “around 25%”.

The pIC50 is −log10 of the IC50, conventionally taken in molar units.
